Test system: MV4-11 cells
Assay: Inhibition of MV4-11 cell proliferation (CellTiterGlo, 72 h)
Assay type: cell-based
Conditions: Homo sapiens; 72 h growth inhibition; uncertainty ±20%

| SMILES | IC50 [nM] |
| --- | --- |
| COc1cc2c(C3CCN(C(=O)Nc4ccc(N5CCOCC5)cc4)CC3)ncnc2cc1OCCCN1CCN(C)CC1 [Compound 207, 4-{6-Methoxy-7-[3-(4-methyl-piperazin-1-yl)-propoxy]-quinazolin-4-yl}-piperidine-1-carboxylic acid (4-morpholin-4-yl-phenyl)-amide] | 48 |
| COc1cc2c(C3CCN(C(=O)Nc4ccc(N5CCCC5)cc4)CC3)ncnc2cc1OCCN1CCCC1=O [Compound 209, 4-{6-Methoxy-7-[2-(2-oxo-pyrrolidin-1-yl)-ethoxy]-quinazolin-4-yl}-piperidine-1-carboxylic acid (4-pyrrolidin-1-yl-phenyl)-amide] | 26 |
| O=C(Nc1ccc(N2CCCC2)cc1)N1CCC(c2ncnc3cc(N4CCOCC4)c(F)cc23)CC1 [Compound 210, 4-(6-Fluoro-7-morpholin-4-yl-quinazolin-4-yl)-piperidine-1-carboxylic acid (4-pyrrolidin-1-yl-phenyl)-amide] | 102 |
| O=C1CCCN1CCOc1cc2ncnc(C3CCN(C(=O)Nc4ccc(N5CCCC5)cc4)CC3)c2cc1F [Compound 206, 4-{6-Fluoro-7-[2-(2-oxo-pyrrolidin-1-yl)-ethoxy]-quinazolin-4-yl}-piperidine-1-carboxylic acid (4-pyrrolidin-1-yl-phenyl)-amide] | 61 |
| COc1cc2ncnc(C3CCN(C(=O)Cc4ccc(C(C)C)cc4)CC3)c2cc1OC [Example 28, 1-[4-(6,7-Dimethoxy-quinazolin-4-yl)-piperidin-1-yl]-2-(4-isopropyl-phenyl)-ethanone] | 15 |
| COc1cc2ncnc(C3CCN(C(=O)Nc4ccc(N(C)C)cc4)CC3)c2cc1OC [Example 26, 4-(6,7-Dimethoxy-quinazolin-4-yl)-piperidine-1-carboxylic acid (4-dimethylamino-phenyl)-amide] | 204 |
| COc1cc2c(C3CCN(C(=O)Nc4ccc(N5CCOCC5)cc4)CC3)ncnc2cc1N1CCOCC1 [Compound 212, 4-(6-Methoxy-7-morpholin-4-yl-quinazolin-4-yl)-piperidine-1-carboxylic acid (4-morpholin-4-yl-phenyl)-amide] | 367 |
| CC(C)Oc1ccc(NC(=O)N2CCC(c3ncnc4cc(Cl)ccc34)CC2)cc1 [Example 29, 4-(7-Chloro-quinazolin-4-yl)-piperidine-1-carboxylic acid (4-isopropoxy-phenyl)-amide] | 315 |
| COc1cc2c(C3CCN(C(=O)Nc4ccc(N5CCCC5)cc4)CC3)ncnc2cc1N1CCOCC1 [Compound 211, 4-(6-Methoxy-7-morpholin-4-yl-quinazolin-4-yl)-piperidine-1-carboxylic acid (4-pyrrolidin-1-yl-phenyl)-amide] | 20 |
| COc1cc2ncnc(C3CCN(C(=O)Nc4ccc(I)cc4)CC3)c2cc1OC [Example 2, 4-(6,7-Dimethoxy-quinazolin-4-yl)-piperidine-1-carboxylic acid (4-iodo-phenyl)-amide] | 752 |
| COc1cc2ncnc(C3CCN(C(=O)Nc4ccc(NC(C)=O)cc4)CC3)c2cc1OC [Example 25, 4-(6,7-Dimethoxy-quinazolin-4-yl)-piperidine-1-carboxylic acid (4-acetylamino-phenyl)-amide] | > 10000 |
| COc1cc2ncnc(C3CCN(C(=O)Nc4ccc(-n5ccnc5)cc4)CC3)c2cc1OC [Example 3, 4-(6,7-Dimethoxy-quinazolin-4-yl)-piperidine-1-carboxylic acid (4-imidazol-1-yl-phenyl)-amide] | 636 |

Other lines, results leading:

| IC50 [nM] | SMILES |
| --- | --- |
| 16 | CC(C)Oc1ccc(NC(=O)N2CCC(c3ncnc4cc(OCCCN5CCOCC5)ccc34)CC2)cc1 [Example 38] |
| 14 | CC(C)Oc1ccc(NC(=O)N2CCC(c3ncnc4cc(OCCCN5CCN(C)CC5)ccc34)CC2)cc1 [Example 39] |
| 95 | CC(C)Oc1ccc(NC(=O)N2CCC(c3ncnc4cc(OCCN5CCCCC5)ccc34)CC2)cc1 [Example 34, 4-(7-(2-Piperindin-1-yl-ethoxy)-quinazolin-4-yl)-piperidine-1-carboxylic acid (4-isopropoxy-phenyl)-amide] |
| 165 | CC(C)Oc1ccc(NC(=O)N2CCC(c3ncnc4cc(OCCN5CCOCC5)ccc34)CC2)cc1 [Example 37] |
| 2200 | COCCOc1ccc(NC(=O)N2CCC(c3ncnc4cc(OC)c(OC)cc34)CC2)cc1 [Example 40, 4-(6,7-Dimethoxy-quinazolin-4-yl)-piperidine-1-carboxylic acid [4-(2-methoxy-ethoxy)-phenyl]-amide] |
| 95 | CCN(CC)CCOc1ccc2c(C3CCN(C(=O)Nc4ccc(OC(C)C)cc4)CC3)ncnc2c1 [Example 35, 4-[7-(2-Diethylamino-ethoxy)-quinazolin-4-yl)-piperidine-1-carboxylic acid (4-isopropoxy-phenyl)-amide] |
| 380 | CC(C)c1ccc(NC(=O)N2CCC(c3ncnc4cc(Cl)ccc34)CC2)cc1 [Example 30, 4-(7-Chloro-quinazolin-4-yl)-piperidine-1-carboxylic acid (4-isopropyl-phenyl)-amide] |
| 235 | COc1ccc2c(C3CCN(C(=O)Nc4ccc(C(C)C)cc4)CC3)ncnc2c1 [Example 32, 4-(7-Methoxy-quinazolin-4-yl)-piperidine-1-carboxylic acid (4-isopropyl-phenyl)-amide] |
| 42 | CCN(CC)CCCOc1ccc2c(C3CCN(C(=O)Nc4ccc(OC(C)C)cc4)CC3)ncnc2c1 [Example 36, 4-[7-(3-Diethylamino-propoxy)-quinazolin-4-yl)-piperidine-1-carboxylic acid (4-isopropoxy-phenyl)-amide] |
| 85 | COc1ccc2c(C3CCN(C(=O)Nc4ccc(OC(C)C)cc4)CC3)ncnc2c1 [Example 31, 4-(7-Methoxy-quinazolin-4-yl)-piperidine-1-carboxylic acid (4-isopropoxy-phenyl)-amide] |
| 50 | CC(C)Oc1ccc(NC(=O)N2CCC(c3ncnc4cc(OCCCN5CCCCC5)ccc34)CC2)cc1 [Example 33, 4-(7-(3-Piperidin-1-yl-propoxy)-quinazolin-4-yl)-piperidine-1-carboxylic acid (4-isopropoxy-phenyl)-amide] |
